Measured values taken from the NIST ThermoML archive (doi:10.1016/j.fluid.2005.06.010).

Experiment: xn = mol fraction of the nth substance listed
Details: Fluid (supercritical or subcritical phases), Vibrating tube method

c1ccc2ccccc2c1 [naphthalene] + O=C=O
Details	mass density [kg/m3]
323.07 K, 21967 kPa, x1 = 0.0049	814.97
323.07 K, 21991 kPa, x1 = 0.0235	840.23
323.07 K, 22035 kPa, x1 = 0.0093	823.39
323.07 K, 22055 kPa, x1 = 0.0144	828.6
323.07 K, 23011 kPa, x1 = 0.0144	836.78
323.07 K, 23014 kPa, x1 = 0.0049	824.8
323.07 K, 23024 kPa, x1 = 0.0235	848.46
323.07 K, 23037 kPa, x1 = 0.0093	832.27
323.07 K, 23975 kPa, x1 = 0.0144	844.56
323.07 K, 24012 kPa, x1 = 0.0235	855.79
323.07 K, 24013 kPa, x1 = 0.0093	840.35
323.07 K, 24015 kPa, x1 = 0.0049	833.51
323.07 K, 25007 kPa, x1 = 0.0235	862.81
323.07 K, 25048 kPa, x1 = 0.0093	848.36
323.08 K, 12879 kPa, x1 = 0.0173	702.14
323.08 K, 13019 kPa, x1 = 0.0173	705.93
323.08 K, 13536 kPa, x1 = 0.0173	719.07
323.08 K, 14042 kPa, x1 = 0.0173	730.6
323.08 K, 15088 kPa, x1 = 0.0173	750.8
323.08 K, 16012 kPa, x1 = 0.0173	766
323.08 K, 17038 kPa, x1 = 0.0173	780.79
323.08 K, 18011 kPa, x1 = 0.0173	793.15
323.08 K, 19021 kPa, x1 = 0.0173	804.74
323.08 K, 20018 kPa, x1 = 0.0173	815.17
323.08 K, 21012 kPa, x1 = 0.0173	824.64
323.08 K, 22051 kPa, x1 = 0.0173	833.83
323.08 K, 23040 kPa, x1 = 0.0173	842.05
323.08 K, 24014 kPa, x1 = 0.0173	849.58
323.08 K, 24688 kPa, x1 = 0.0173	854.56
323.11 K, 11710 kPa, x1 = 0.0065	608.68
323.11 K, 11886 kPa, x1 = 0.0065	618.53
323.11 K, 12112 kPa, x1 = 0.0065	630.1
323.11 K, 12597 kPa, x1 = 0.0065	651.76
323.11 K, 13175 kPa, x1 = 0.0065	672.88
323.11 K, 14114 kPa, x1 = 0.0065	700.29
323.11 K, 14946 kPa, x1 = 0.0065	719.89
323.11 K, 15974 kPa, x1 = 0.0065	740.17
323.11 K, 17091 kPa, x1 = 0.0065	758.86
323.11 K, 18018 kPa, x1 = 0.0065	772.31
323.11 K, 19119 kPa, x1 = 0.0065	786.49
323.11 K, 19947 kPa, x1 = 0.0065	796.13
323.11 K, 21027 kPa, x1 = 0.0065	807.77
323.11 K, 22102 kPa, x1 = 0.0065	818.31
323.11 K, 23244 kPa, x1 = 0.0065	828.6
323.11 K, 23905 kPa, x1 = 0.0065	834.23
323.11 K, 24345 kPa, x1 = 0.0065	837.73
323.13 K, 10131 kPa, x1 = 0.0038	441.7
323.13 K, 10204 kPa, x1 = 0.0038	452.21
323.13 K, 10370 kPa, x1 = 0.0038	473.73
323.13 K, 10546 kPa, x1 = 0.0038	495.19
323.13 K, 10713 kPa, x1 = 0.0038	513.93
323.13 K, 10899 kPa, x1 = 0.0038	532.86
323.13 K, 11125 kPa, x1 = 0.0038	553.43
323.13 K, 11428 kPa, x1 = 0.0038	577.02
323.13 K, 11636 kPa, x1 = 0.0038	591
323.13 K, 11975 kPa, x1 = 0.0038	610.86
323.13 K, 12255 kPa, x1 = 0.0038	625.25
323.13 K, 12628 kPa, x1 = 0.0038	641.9
323.13 K, 13011 kPa, x1 = 0.0038	656.88
323.13 K, 13569 kPa, x1 = 0.0038	675.56
323.13 K, 14021 kPa, x1 = 0.0038	688.77
323.13 K, 15003 kPa, x1 = 0.0038	713.06
323.13 K, 16030 kPa, x1 = 0.0038	733.89
323.13 K, 17020 kPa, x1 = 0.0038	750.95
323.13 K, 18020 kPa, x1 = 0.0038	766.06
323.13 K, 19025 kPa, x1 = 0.0038	779.54
323.13 K, 20018 kPa, x1 = 0.0038	791.52
323.13 K, 21018 kPa, x1 = 0.0038	802.54
323.13 K, 22016 kPa, x1 = 0.0038	812.65
323.13 K, 23026 kPa, x1 = 0.0038	822.13
323.13 K, 24020 kPa, x1 = 0.0038	830.83
323.13 K, 25003 kPa, x1 = 0.0038	838.9
327.94 K, 14128 kPa, x1 = 0.0198	700.18
327.94 K, 15025 kPa, x1 = 0.0198	721
327.94 K, 15984 kPa, x1 = 0.0198	739.45
327.94 K, 17037 kPa, x1 = 0.0198	756.72
327.94 K, 18024 kPa, x1 = 0.0198	770.78
327.94 K, 18966 kPa, x1 = 0.0198	782.81
327.94 K, 20021 kPa, x1 = 0.0198	794.93
327.94 K, 21050 kPa, x1 = 0.0198	805.66
327.94 K, 22039 kPa, x1 = 0.0198	815.2
327.94 K, 22982 kPa, x1 = 0.0198	823.62
327.94 K, 24044 kPa, x1 = 0.0198	832.44
327.94 K, 25048 kPa, x1 = 0.0198	840.3
327.98 K, 20991 kPa, x1 = 0.0276	810.47
327.98 K, 22012 kPa, x1 = 0.0276	819.85
327.98 K, 23092 kPa, x1 = 0.0276	829.12
327.98 K, 23996 kPa, x1 = 0.0276	836.33
327.98 K, 24882 kPa, x1 = 0.0276	843.08
327.99 K, 11253 kPa, x1 = 0.0049	476.13
327.99 K, 11541 kPa, x1 = 0.0049	502.2
327.99 K, 12000 kPa, x1 = 0.0049	538.29
327.99 K, 13016 kPa, x1 = 0.0049	598.5
327.99 K, 14020 kPa, x1 = 0.0049	639.93
327.99 K, 15009 kPa, x1 = 0.0049	671.01
327.99 K, 16051 kPa, x1 = 0.0049	696.96
327.99 K, 16996 kPa, x1 = 0.0049	716.42
327.99 K, 18024 kPa, x1 = 0.0049	734.62
327.99 K, 18955 kPa, x1 = 0.0394	812.97
327.99 K, 19015 kPa, x1 = 0.0049	750.05
327.99 K, 19491 kPa, x1 = 0.0394	818.42
327.99 K, 20015 kPa, x1 = 0.0394	823.07
327.99 K, 20048 kPa, x1 = 0.0049	764.24
327.99 K, 20960 kPa, x1 = 0.0394	831.55
327.99 K, 21025 kPa, x1 = 0.0049	776.39
327.99 K, 22010 kPa, x1 = 0.0394	840.78
327.99 K, 22049 kPa, x1 = 0.0049	788
327.99 K, 23023 kPa, x1 = 0.0049	798.13
327.99 K, 23040 kPa, x1 = 0.0394	848.69
327.99 K, 24009 kPa, x1 = 0.0394	855.98
327.99 K, 24079 kPa, x1 = 0.0049	808.33
327.99 K, 24881 kPa, x1 = 0.0394	861.95
328 K, 12017 kPa, x1 = 0.0093	567.42
328 K, 12517 kPa, x1 = 0.0093	596.95
328 K, 12987 kPa, x1 = 0.0173	652.9
328 K, 13018 kPa, x1 = 0.0144	638.84
328 K, 13022 kPa, x1 = 0.0093	621.23
328 K, 13497 kPa, x1 = 0.0144	656.68
328 K, 13513 kPa, x1 = 0.0173	670.93
328 K, 13916 kPa, x1 = 0.0235	697.69
328 K, 14000 kPa, x1 = 0.0144	672.81
328 K, 14016 kPa, x1 = 0.0173	685.86
328 K, 14033 kPa, x1 = 0.0093	659.25
328 K, 14510 kPa, x1 = 0.0235	712.23
328 K, 14988 kPa, x1 = 0.0235	722.58
328 K, 15031 kPa, x1 = 0.0173	710.98
328 K, 15041 kPa, x1 = 0.0093	688.02
328 K, 15044 kPa, x1 = 0.0144	700.6
328 K, 16003 kPa, x1 = 0.0235	741.93
328 K, 16024 kPa, x1 = 0.0093	710.6
328 K, 16029 kPa, x1 = 0.0173	731.18
328 K, 16033 kPa, x1 = 0.0144	721.87
328 K, 17009 kPa, x1 = 0.0144	739.63
328 K, 17031 kPa, x1 = 0.0093	730
328 K, 17033 kPa, x1 = 0.0173	748.41
328 K, 17036 kPa, x1 = 0.0235	758.59
328 K, 18019 kPa, x1 = 0.0235	772.44
328 K, 18021 kPa, x1 = 0.0144	755.54
328 K, 18047 kPa, x1 = 0.0173	763.56
328 K, 18057 kPa, x1 = 0.0093	747.01
328 K, 19027 kPa, x1 = 0.0235	785.16
328 K, 19029 kPa, x1 = 0.0173	776.56
328 K, 19034 kPa, x1 = 0.0144	769.62
328 K, 19042 kPa, x1 = 0.0093	761.34
328 K, 20006 kPa, x1 = 0.0093	774.02
328 K, 20013 kPa, x1 = 0.0173	788.3
328 K, 20015 kPa, x1 = 0.0235	796.35
328 K, 20048 kPa, x1 = 0.0144	782.23
328 K, 21013 kPa, x1 = 0.0093	785.89
328 K, 21023 kPa, x1 = 0.0235	806.8
328 K, 21036 kPa, x1 = 0.0173	799.42
328 K, 21043 kPa, x1 = 0.0144	793.46
328 K, 22023 kPa, x1 = 0.0235	816.35
328 K, 22030 kPa, x1 = 0.0144	803.66
328 K, 22034 kPa, x1 = 0.0093	796.9
328 K, 22064 kPa, x1 = 0.0173	809.6
328 K, 23029 kPa, x1 = 0.0173	818.53
328 K, 23041 kPa, x1 = 0.0235	825.35
328 K, 23052 kPa, x1 = 0.0093	807.08
328 K, 23065 kPa, x1 = 0.0144	813.57
328 K, 24012 kPa, x1 = 0.0144	821.99
328 K, 24037 kPa, x1 = 0.0235	833.62
328 K, 24065 kPa, x1 = 0.0093	816.43
328 K, 24082 kPa, x1 = 0.0173	827.53
328 K, 24770 kPa, x1 = 0.0144	828.36
328 K, 24838 kPa, x1 = 0.0173	833.72
328 K, 25066 kPa, x1 = 0.0235	841.58
328 K, 25067 kPa, x1 = 0.0093	825.06
328.08 K, 11635 kPa, x1 = 0.0065	518.62
